Values belong to the compound of their own block, whether it stands above or below them.
What was measured:
chymotrypsin = conditions: in the presence of calcium ions only, FIG. 4
Method: Experiment 1 was repeated, except that chymotrypsin was employed, instead of trypsin, and the experiment was conducted in the presence of calcium ions only.

[1] = target: T1, Trypsin from porcine pancreas (Sus scrofa, UniProt P00761); test: Inhibition of trypsin activity, fluorescence microplate assay with Z-L-arginine-4-methyl-7-coumarinylamide substrate; type: biochemical; conditions: for effect on the activity of trypsin: pH 7, 30 minutes
T1 construct: from tissue; host or cells: porcine pancreas
Method: A dilute solution of phosphate-buffered saline (PBS) was prepared at a concentration of 0.3 mM phosphate (pH7), and used to dissolve calcium chloride dihydrate or magnesium chloride at a concentration of 0.3 mg/ml. Trypsin from porcine pancreas was dissolved in the Ca/PBS buffer, in either the presence or absence of calcium, at a concentration of trypsin at 0.02 mg/ml. 5 ml aliquots of disodium EDTA (dihydrate) solution were prepared in PBS with and without calcium or magnesium at doubling dilutions from 8 mg/ml downwards, and the pH of each solution adjusted to 7. Trypsin substrate (namely Z-L-arginine-4-methyl-7-coumarinylamide HCl) was dissolved in DMSO at a concentration of 0.125 mg/ml, then diluted 100-fold in Ca/PBS buffer. EDTA solutions were dispensed into the wells of a black microplate (60 ul per well) then 10 ul of trypsin solution was added, followed by 10 ul of substrate. The reaction was allowed to proceed for 30 minutes, and the extent of reaction determined in a fluorescence microplate reader by measuring the fluorescence of the reaction product (coumarin) at excitation wavelength 365 nm, emission 440 nm.
A dilute solution of phosphate-buffered saline (PBS) was prepared at a concentration of 0.3 mM phosphate (pH7), and used to dissolve calcium chloride dihydrate at a concentration of 0.3 mg/ml. Trypsin from porcine pancreas was dissolved in the Ca/PBS buffer at a concentration of 0.02 mg/ml trypsin. 5 ml aliquots of disodium EGTA (dihydrate) solution were prepared in PBS at doubling dilutions from 8 mg/ml downwards, and the pH of each solution adjusted to 7. Trypsin substrate (namely Z-L-arginine-4-methyl-7-coumarinylamide HCl) was dissolved in DMSO at a concentration of 0.125 mg/ml, then diluted 100-fold in Ca/PBS buffer. EGTA solutions were dispensed into the wells of a black microplate (60 ul per well) then 10 ul of trypsin solution was added, followed by 10 ul of substrate. The reaction was allowed to proceed for 30 minutes, and the extent of reaction determined in a fluorescence microplate reader by measuring the fluorescence of the reaction product (coumarin) at excitation wavelength 365 nm, emission 440 nm.
A dilute solution of phosphate-buffered saline (PBS) was prepared at a concentration of 0.3 mM phosphate (pH7), and used to dissolve calcium chloride dihydrate at a concentration of 0.3 mg/ml. Trypsin from porcine pancreas was dissolved in the buffer, in either the presence or absence of calcium, at a concentration of 0.02 mg/ml. 5 ml aliquots of disodium EGTA (dihydrate) solution and phenanthroline (Low concentrations of phenanthroline only were employed, because of its limited solubility in aqueous phase) were prepared in PBS with and without calcium at doubling dilutions from 8 mg/ml downwards, and the pH of each solution adjusted to 7. Trypsin substrate (namely Z-L-arginine-4-methyl-7-coumarinylamide HCl) was dissolved in DMSO at a concentration of 0.125 mg/ml, then diluted 100-fold in Ca/PBS buffer. EGTA solutions and phenanthroline were dispensed into the wells of a black microplate (60 ul per well) then 10 ul of trypsin solution was added, followed by 10 ul of substrate. The reaction was allowed to proceed for 30 minutes, and the extent of reaction determined in a fluorescence microplate reader by measuring the fluorescence of the reaction product (coumarin) at excitation wavelength 365 nm, emission 440 nm.

[2] = in combination with / in the presence of calcium (0.3 mg/ml), FIG. 1 and FIG. 3

T1 sequence (P00761 9-231): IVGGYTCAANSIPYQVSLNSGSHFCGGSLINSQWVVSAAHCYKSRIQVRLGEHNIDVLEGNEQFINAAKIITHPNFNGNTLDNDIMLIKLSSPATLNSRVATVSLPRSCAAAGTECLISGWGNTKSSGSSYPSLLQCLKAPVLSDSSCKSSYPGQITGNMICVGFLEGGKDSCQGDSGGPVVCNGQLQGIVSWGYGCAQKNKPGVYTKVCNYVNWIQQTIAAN

effect on the activity of trypsin ([1]; EDTA alone (no calcium or magnesium), doubling dilutions from 8 mg/ml, FIG. 1): significant inhibitory effect
effect on the activity of trypsin [1, 2]: significant inhibitory effect
effect on the activity of trypsin ([1]; in combination with magnesium (0.5 mg/ml), FIG. 1): significant inhibitory effect
SMILES: O=C(O)CN(CCN(CC(=O)O)CC(=O)O)CC(=O)O [EDTA]
effect on the protease activity of chymotrypsin (chymotrypsin): inhibitory effect

effect on the activity of trypsin ([1]; EGTA doubling dilutions from 8 mg/ml, presence and absence of calcium ions, FIG. 2): inhibitory effect
SMILES: O=C(O)CN(CCOCCOCCN(CC(=O)O)CC(=O)O)CC(=O)O [EGTA]

effect on the activity of trypsin [1, 2]: no effect
SMILES: O=C(O)CC(O)(CC(=O)O)C(=O)O [citrate, citric acid, reference compound]

effect on the activity of trypsin [1, 2]: no inhibitory effect
SMILES: c1cnc2c(c1)ccc1cccnc12 [phenanthroline, ortho-phenanthroline, reference compound]

SMILES: [Zn+2] [zinc]
effect of the metal ion on inhibition of trypsin by EDTA or EGTA ([1]; metal ion combined with EDTA or EGTA, calcium and magnesium show inhibition): has no such effect

Reference: US20240238231A1, “EDTA AND EGTA FOR USE IN PRESERVING THE INTEGRITY OF THERAPEUTIC COMPOUNDS” (Axcess (UK) Ltd, priority 2021, published 2024)
